Measurements from patent publication US12704458B2, “Critical angle reflection imaging for quantification of molecular interactions” (ARIZONA BOARD OF REGENTS ON BEHALF OF ARIZONA STATE …, priority 2020, dated 2026).

Experiments:
[1] = tested on: glycoproteins on fixed HeLa cells; assay: SPR imaging of WGA binding to glycoproteins on fixed HeLa cells; details: gold surface, 50 μg/ml WGA, average of 10 cells
Experimental: SPR was first used to measure glycoprotein-WGA interaction on fixed HeLa cells (FIG. 7a). The cells were cultured on a gold surface and fixed right before the measurement (FIG. 7b). PBS buffer was flowed over the surface to establish a baseline and then introduced 50 μg/ml WGA (FIG. 7c). Binding of WGA to the glycoproteins increased the surface refractive index and caused the SPR signal to increase. After the association process, PBS buffer was flowed in again to induce dissociation of WGA from the cells. […] The WGA was labeled with Alexa Fluor 488, allowing verification of the binding using fluorescence. Three fluorescence images were captured at different phases of the binding process: at the baseline, after association, and after dissociation (FIG. 7d) respectively. The fluorescence change, although weak, confirmed that the SPR signal was due to the binding.
(§1) All the cell-related experiments including CAR, SPR, transmitted and fluorescence measurements (FIGS. 7-9) were performed on an objective-based SPR microscope setup, which consisted of an inverted microscope (Olympus IX-81) and a 60× (NA 1.49) oil-immersion objective. The light source for CAR and SPR imaging was a superluminescent light emitting diode (SLD-260-HP-TOW-PD-670, Superlum, Ireland) with 670 nm wavelength. The light source for transmitted and fluorescence imaging were the stocking halogen and mercury lamp of the microscope, respectively. A CMOS camera (ORCA-Flash 4.0, Hamamatsu) was used to record the images. A gravity-based drug perfusion system (SF-77B, Warner Instruments, Connecticut) was used for delivering analytes to the cells.
HeLa, SH-EP1, and SH-EP1_α4β2 cells were obtained from the American Type Culture Collection. […]
(§2) WinSpall 3.01 (Resonant Technologies GmbH, Germany) was used to calculate the reflectivity as a function of incident angle for CAR and SPR. The recorded CAR and SPR images were processed with ImageAnalysis (Biosensing Instrument Inc.) and Fiji. […]

[2] = tested on: glycoproteins on fixed HeLa cells; assay: CAR imaging of WGA binding to glycoproteins on fixed HeLa cells; details: glass surface, ~61.0 degrees, 50 μg/ml WGA, average of the 9 cells
Experimental: Next, CAR imaging was used to repeat the glycoprotein-WGA binding measurement. The cells were cultured on a glass surface, and the bright field image and the corresponding CAR image of 9 cells are shown in FIG. 7e. The cells show dark patterns because they have higher refractive index than the background. θi was set at ~61.0 degrees with similar sensitivity to SPR. […] The minor disagreement in kinetic constants might reflect different surfaces and different light illumination depth between SPR and CAR. Fluorescence images captured during the CAR measurement confirmed the binding of WGA (FIG. 7g). […] For this reason, CAR is believed to be more compatible with fluorescence than SPR, and suitable for measuring biological samples that need simultaneous fluorescent labelling.
as §1
HeLa, SH-EP1, and SH-EP1_α4β2 cells were obtained from the American Type Culture Collection. The cells were cultured in Dulbecco's modified eagle medium (Lonza) with 10% fetal bovine serum (Invitrogen) and 1% penicillin and streptomycin in a humidified incubator at 37° C. with 5% CO2. […]
as §2

## WGA: lectin that specifically binds N-acetylglucosamine structures in glycoproteins; with Alexa Fluor 488 tag, Thermo Fisher Scientific
[1]
  Kd: 53 ± 1 nM
  ka: (2.5±0.1)×10^3 M^−1s^−1
  kd: (1.3±0.1)×10^−4 s^−1
[2]
  Kd: 42 ± 1 nM
  ka: (6.0±0.1)×10^3 M^−1s^−1
  kd: (2.6±0.1)×10^−4 s^−1
